Results published in publication PMC10734772 (Turkish Journal of Chemistry, 2021).

What was measured:
Assay type in all cases: cell-based
[1] = tested on: K562, Nalm-6, Molt-4, Reh, Jurkat, Hek293T cell lines; assay: MTT assay, overall judgement over all cell lines; conditions: overall judgement in words; for 6 and 10: on all cell lines, except Reh
Summary of the method: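 MTT viability assay run across a range of compound concentrations in leukemic lines, BCR-ABL positive K562 and BCR-ABL negative Nalm-6, Molt-4, Reh, Jurkat, plus non-leukemic Hek293T. Viability rate calculated per concentration.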

[2] = tested on: Nalm-6; assay: MTT assay, Nalm-6 cells; conditions: Homo sapiens, 24 h, MTT, read-out: Viability rate
Protocol: (§1) K562, Jurkat and Molt-4 cell lines were seeded as 4x10^5/ml, Reh and Nalm-6 cell lines were seeded 5x10^5/ml, Hek293T cell line was seed as 2x10^5/ml.
(§2) MTT assay is a 3-day test. On the first day, cell count was performed in Bio Rad TC-20 device with the help of trypan blue, each cell line was prepared by diluting to the specified concentrations and seeded in a 96-well plate as 100μL to each well and incubated for 1 day.
(§3) On the second day, stock solutions were subsequently diluted to various concentrations (0.3–200 μM) with related medium prior to experiments. Specified concentrations of the compounds were seeded in a 96-well plate as 100μL to each well and incubated for 24 h.
(§4) After incubation (on the third day), to precipitate leukemia cells, the cell plate was centrifuged at 1500 rpm for 5 min. […] The 50 μl of supernatant was discarded from each well and 100 μl of DMSO was added to dissolve the formazan. Plates were shaken for 45 min to dissolve the dye. Then the optical density of each well was measured by using Thermo VarioSkan Flush Multimode Reader Quantum ST5-1100 at 570 nm wavelength.
(§5) Subsequently, viability rate of the cells at each concentration, as percentage, was determined by following formula (1):
(§6) Viability rate (%)=100-[(OD(control)-OD(sample))/OD(control)×100].OD=Optical Density
(§7) The IC50 values were calculated by using GraphPad Prism. All the data presented as the mean of 6 replicates. […] Statistical analysis was performed using dose-response inhibition, log(inhibitor) vs response-variable slope, least squares (ordinary) fit.

[3] = tested on: K562; assay: MTT assay, K562 cells; conditions: Homo sapiens, 24 h, MTT, read-out: Viability rate
Protocol: as §1, §2, §3, §4, §5, §6, §7

[4] = tested on: Reh; assay: MTT assay, Reh cells; conditions: Homo sapiens, 24 h, read-out: Viability rate
[5] = tested on: Molt-4; assay: MTT assay, Molt-4 cells; conditions: Homo sapiens, MOLT-4, 24 h, read-out: Viability rate
[6] = tested on: Jurkat; assay: MTT assay, Jurkat cells; conditions: Homo sapiens, 24 h, read-out: Viability rate
[7] = MTT assay, Hek293T non-leukemic control cells; conditions: human, Hek293T cells (non-leukemic control cell line), read-out: Viability rate

Q: For `Cc1ccnc(Nc2cc(NC(=O)c3ccc(CN4CCN(c5ncccn5)CC4)cc3)ccc2C)n1` [Compound 5, N-(4-Methyl-3-((4-methylpyrimidin-2-yl)amino)phenyl)-4-((4-(pyrimidin-2-yl)piperazin-1-yl)methyl)benzamide], which “anticancer activity according to MTT assay results” value [1] is on record?
A: very poor activity

Q: And the viability at 1 µM ([2]; Nalm-6, 1 μM)?
A: 95.8 ± 0.01%

Q: And the viability at 3 µM ([2]; Nalm-6, 3 μM)?
A: 95 ± 0.02%

Q: And the viability at 5 µM ([2]; Nalm-6, 5 μM)?
A: 92.4 ± 0.03%

Q: What about the viability at 10 µM ([2]; Nalm-6, 10 μM) of the same molecule?
A: 90.1 ± 0.02%

Q: What about the viability at 15 µM ([2]; Nalm-6, 15 μM) of the same molecule?
A: 84.1 ± 0.01%

Q: What about the viability at 20 µM ([2]; Nalm-6, 20 μM) of the same molecule?
A: 80.1 ± 0.02%

Q: And the viability at 30 µM ([2]; Nalm-6, 30 μM)?
A: 78.6 ± 0.01%

Q: And the viability at 50 µM ([2]; Nalm-6, 50 μM)?
A: 74.1 ± 0.01%

Q: What about the viability at 70 µM ([2]; Nalm-6, 70 μM) of the same molecule?
A: 71.9 ± 0.01%

Q: What about the viability at 100 µM ([2]; Nalm-6, 100 μM) of the same molecule?
A: 70.3 ± 0.01%

Q: And the viability at 150 µM ([2]; Nalm-6, 150 μM)?
A: 70.2 ± 0.01%

Q: What about the viability at 200 µM ([2]; Nalm-6, 200 μM) of the same molecule?
A: 70.5 ± 0.01%

Q: What about the viability at 1 µM ([3]; K562, 1 μM) of the same molecule?
A: 103.1 ± 0.07%

Q: What about the viability at 3 µM ([3]; K562, 3 μM) of the same molecule?
A: 98.7 ± 0.08%

Q: What about the viability at 5 µM ([3]; K562, 5 μM) of the same molecule?
A: 99.7 ± 0.06%

Q: And the viability at 10 µM ([3]; K562, 10 μM)?
A: 97 ± 0.05%

Q: What about the viability at 15 µM ([3]; K562, 15 μM) of the same molecule?
A: 99.5 ± 0.12%

Q: And the viability at 20 µM ([3]; K562, 20 μM)?
A: 106.5 ± 0.04%

Q: What about the viability at 30 µM ([3]; K562, 30 μM) of the same molecule?
A: 102.7 ± 0.05%

Q: What about the viability at 50 µM ([3]; K562, 50 μM) of the same molecule?
A: 101.6 ± 0.12%

Q: And the viability at 70 µM ([3]; K562, 70 μM)?
A: 100.1 ± 0.08%

Q: What about the viability at 100 µM ([3]; K562, 100 μM) of the same molecule?
A: 104.6 ± 0.1%

Q: What about the viability at 150 µM ([3]; K562, 150 μM) of the same molecule?
A: 104.3 ± 0.1%

Q: And the viability at 200 µM ([3]; K562, 200 μM)?
A: 102.1 ± 0.14%

Q: And the viability at 1 µM ([4]; 1 μM)?
A: 96.6 ± 0.01%

Q: And the viability at 3 µM ([4]; 3 μM)?
A: 95.8 ± 0.05%

Q: And the viability at 5 µM ([4]; 5 μM)?
A: 95.7 ± 0.03%

Q: And the viability at 10 µM ([4]; 10 μM)?
A: 95.1 ± 0.04%

Q: And the viability at 15 µM ([4]; 15 μM)?
A: 94.9 ± 0.04%

Q: And the viability at 20 µM ([4]; 20 μM)?
A: 90.2 ± 0.03%

Q: And the viability at 30 µM ([4]; 30 μM)?
A: 87.9 ± 0.04%

Q: What about the viability at 50 µM ([4]; 50 μM) of the same molecule?
A: 85.5 ± 0.05%

Q: And the viability at 70 µM ([4]; 70 μM)?
A: 81.4 ± 0.01%

Q: And the viability at 100 µM ([4]; 100 μM)?
A: 79.1 ± 0.01%

Q: What about the viability at 150 µM ([4]; 150 μM) of the same molecule?
A: 79.1 ± 0.02%

Q: And the viability at 200 µM ([4]; 200 μM)?
A: 74%

Q: And the viability at 1 µM ([5]; Molt-4, 1 μM)?
A: 95.2 ± 0.08%

Q: And the viability at 3 µM ([5]; Molt-4, 3 μM)?
A: 84.6 ± 0.04%

Q: And the viability at 5 µM ([5]; Molt-4, 5 μM)?
A: 85.1 ± 0.11%

Q: And the viability at 10 µM ([5]; Molt-4, 10 μM)?
A: 84.8 ± 0.03%

Q: What about the viability at 15 µM ([5]; Molt-4, 15 μM) of the same molecule?
A: 84.9 ± 0.11%

Q: What about the viability at 20 µM ([5]; Molt-4, 20 μM) of the same molecule?
A: 85.8 ± 0.03%

Q: What about the viability at 30 µM ([5]; Molt-4, 30 μM) of the same molecule?
A: 85.3 ± 0.06%

Q: And the viability at 50 µM ([5]; Molt-4, 50 μM)?
A: 86.1 ± 0.11%

Q: What about the viability at 70 µM ([5]; Molt-4, 70 μM) of the same molecule?
A: 84.6 ± 0.05%

Q: What about the viability at 100 µM ([5]; Molt-4, 100 μM) of the same molecule?
A: 83.5 ± 0.12%

Q: What about the viability at 150 µM ([5]; Molt-4, 150 μM) of the same molecule?
A: 87.1 ± 0.09%

Q: And the viability at 200 µM ([5]; Molt-4, 200 μM)?
A: 86.6 ± 0.08%

Q: And the viability at 3 µM ([6]; 3 μM)?
A: 90.1 ± 0.11%

Q: And the viability at 5 µM ([6]; 5 μM)?
A: 89.7 ± 0.09%

Q: What about the viability at 10 µM ([6]; 10 μM) of the same molecule?
A: 89.6 ± 0.15%

Q: And the viability at 15 µM ([6]; 15 μM)?
A: 88.8 ± 0.09%

Q: And the viability at 20 µM ([6]; 20 μM)?
A: 88.8 ± 0.08%

Q: And the viability at 30 µM ([6]; 30 μM)?
A: 88.1 ± 0.1%

Q: What about the viability at 50 µM ([6]; 50 μM) of the same molecule?
A: 83.4 ± 0.12%

Q: What about the viability at 70 µM ([6]; 70 μM) of the same molecule?
A: 82.5 ± 0.07%

Q: And the viability at 100 µM ([6]; 100 μM)?
A: 80.8 ± 0.13%

Q: And the viability at 150 µM ([6]; 150 μM)?
A: 78.7 ± 0.12%

Q: What about the viability at 200 µM ([6]; 200 μM) of the same molecule?
A: 66.5 ± 0.05%

Q: And the viability at 24 h, 3 µM ([7]; 3 μM)?
A: 66.5 ± 0.11%

Q: And the viability at 24 h, 5 µM ([7]; 5 μM)?
A: 61 ± 0.13%

Q: And the viability at 24 h, 10 µM ([7]; 10 μM)?
A: 59.4 ± 0.08%

Q: What about the viability at 24 h, 15 µM ([7]; 15 μM) of the same molecule?
A: 56.6 ± 0.1%

Q: What about the viability at 24 h, 20 µM ([7]; 20 μM) of the same molecule?
A: 56.2 ± 0.03%

Q: And the viability at 24 h, 30 µM ([7]; 30 μM)?
A: 55.8 ± 0.05%

Q: What about the viability at 24 h, 50 µM ([7]; 50 μM) of the same molecule?
A: 54.1 ± 0.04%

Q: What about the viability at 24 h, 70 µM ([7]; 70 μM) of the same molecule?
A: 52.7 ± 0.03%

Q: What about the viability at 24 h, 100 µM ([7]; 100 μM) of the same molecule?
A: 50.5 ± 0.02%

Q: And the viability at 24 h, 150 µM ([7]; 150 μM)?
A: 50.4 ± 0.02%

Q: And the viability at 24 h, 200 µM ([7]; 200 μM)?
A: 50 ± 0.04%
